Experimental data: ChEMBL document CHEMBL3608278 (J Med Chem, 2015)

Columns and labels:
[1] = target: T1, Potassium voltage-gated channel subfamily A member 3 (Homo sapiens, UniProt P22001); assay: cell-based; set-up: species or system Blood
[2] = target: T1, Potassium voltage-gated channel subfamily A member 3; set-up: species or system Blood

T1 sequence (P22001 whole entry): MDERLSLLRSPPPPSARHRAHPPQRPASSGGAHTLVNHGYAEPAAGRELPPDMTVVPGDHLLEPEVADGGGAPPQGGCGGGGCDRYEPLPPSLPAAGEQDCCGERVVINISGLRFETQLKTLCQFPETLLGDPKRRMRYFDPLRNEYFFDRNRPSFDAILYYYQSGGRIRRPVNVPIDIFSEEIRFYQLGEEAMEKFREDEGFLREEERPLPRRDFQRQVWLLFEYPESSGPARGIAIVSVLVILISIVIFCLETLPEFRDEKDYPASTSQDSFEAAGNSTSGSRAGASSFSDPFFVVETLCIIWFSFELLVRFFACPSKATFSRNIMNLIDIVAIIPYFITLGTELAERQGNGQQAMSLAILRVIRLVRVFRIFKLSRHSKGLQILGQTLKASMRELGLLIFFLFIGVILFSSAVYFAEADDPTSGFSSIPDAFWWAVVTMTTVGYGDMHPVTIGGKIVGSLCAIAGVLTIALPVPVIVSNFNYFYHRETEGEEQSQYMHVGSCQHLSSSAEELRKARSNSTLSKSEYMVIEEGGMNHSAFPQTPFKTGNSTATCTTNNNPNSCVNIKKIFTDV

SMILES	IC50 [1]	IC50 [2]
CC[C@H](C)[C@@H]1NC(=O)[C@@H](NC(=O)[C@H](CO)NC(=O)[C@@H](N)CCCNC(=N)N)CSSC[C@@H](C(=O)O)NC(=O)[C@H]([C@@H](C)O)NC(=O)CNC(=O)[C@@H]2CSSC[C@@H]3NC(=O)[C@H](CCC(N)=O)NC(=O)[C@H](Cc4ccccc4)NC(=O)[C@H](C)NC(=O)[C@H]([C@@H](C)O)NC(=O)[C@H](CSSC[C@H](NC(=O)[C@H](Cc4ccccc4)NC(=O)[C@H](CO)NC(=O)[C@H](CC(C)C)NC(=O)[C@H](CCCNC(=N)N)NC(=O)[C@H](Cc4ccc(O)cc4)NC(=O)[C@H](CCCCN)NC(=O)[C@H](CCSC)NC(=O)[C@H](CO)NC(=O)[C@H](Cc4cnc[nH]4)NC(=O)[C@H](CCCCN)NC3=O)C(=O)N[C@@H](CCCNC(=N)N)C(=O)N[C@@H](CCCCN)C(=O)N[C@@H]([C@@H](C)O)C(=O)N2)NC(=O)[C@H](CCCNC(=N)N)NC(=O)[C@H](CO)NC(=O)[C@H](CCCCN)NC(=O)[C@@H]2CCCN2C(=O)[C@H](CCCNC(=N)N)NC(=O)[C@H]([C@@H](C)O)NC(=O)[C@H](CC(=O)O)NC1=O	6.56 nM	10.1 nM
CC[C@H](C)[C@@H]1NC(=O)[C@@H](NC(=O)[C@H](CO)NC(=O)[C@@H](N)CCCNC(=N)N)CSSC[C@@H](C(=O)O)NC(=O)[C@H]([C@@H](C)O)NC(=O)CNC(=O)[C@@H]2CSSC[C@@H]3NC(=O)[C@H](CCC(N)=O)NC(=O)[C@H](Cc4ccccc4)NC(=O)[C@H](C)NC(=O)[C@H]([C@@H](C)O)NC(=O)[C@H](CSSC[C@H](NC(=O)[C@H](Cc4ccccc4)NC(=O)[C@H](CO)NC(=O)[C@H](CC(C)C)NC(=O)[C@H](CCCNC(=N)N)NC(=O)[C@H](Cc4ccc(O)cc4)NC(=O)[C@H](CCCCN)NC(=O)[C@H](CCSC)NC(=O)[C@H](CO)NC(=O)[C@H](CCCCN)NC(=O)[C@H](CCCCN)NC3=O)C(=O)N[C@@H](CCCNC(=N)N)C(=O)N[C@@H](CCCCN)C(=O)N[C@@H]([C@@H](C)O)C(=O)N2)NC(=O)[C@H](CCCNC(=N)N)NC(=O)[C@H](CO)NC(=O)[C@H](CCCCN)NC(=O)[C@@H]2CCCN2C(=O)[C@H]([C@@H](C)CC)NC(=O)[C@H]([C@@H](C)O)NC(=O)[C@H](CC(=O)O)NC1=O	0.041 nM	0.089 nM
CC[C@H](C)[C@@H]1NC(=O)[C@@H](NC(=O)[C@H](CO)NC(=O)[C@@H](N)CCCNC(=N)N)CSSC[C@@H](C(=O)O)NC(=O)[C@H]([C@@H](C)O)NC(=O)CNC(=O)[C@@H]2CSSC[C@@H]3NC(=O)[C@H](CCC(N)=O)NC(=O)[C@H](Cc4ccccc4)NC(=O)[C@H](C)NC(=O)[C@H]([C@@H](C)O)NC(=O)[C@H](CSSC[C@H](NC(=O)[C@H](Cc4ccccc4)NC(=O)[C@H](CO)NC(=O)[C@H](CC(C)C)NC(=O)[C@H](CCCNC(=N)N)NC(=O)[C@H](Cc4ccc(O)cc4)NC(=O)[C@H](CCCCN)NC(=O)[C@H](CCSC)NC(=O)[C@H](CO)NC(=O)[C@H](Cc4cnc[nH]4)NC(=O)[C@H](CCCCN)NC3=O)C(=O)N[C@@H](CCCNC(=N)N)C(=O)N[C@@H](Cc3cccc4ccccc34)C(=O)N[C@@H]([C@@H](C)O)C(=O)N2)NC(=O)[C@H](CCCNC(=N)N)NC(=O)[C@H](CO)NC(=O)[C@H](CCCCN)NC(=O)[C@@H]2CCCN2C(=O)[C@H]([C@@H](C)CC)NC(=O)[C@H]([C@@H](C)O)NC(=O)[C@H](CC(=O)O)NC1=O	0.082 nM	0.148 nM
CC[C@H](C)[C@@H]1NC(=O)[C@@H](NC(=O)[C@H](CO)NC(=O)[C@@H](N)CCCNC(=N)N)CSSC[C@@H](C(=O)O)NC(=O)[C@H]([C@@H](C)O)NC(=O)CNC(=O)[C@@H]2CSSC[C@@H]3NC(=O)[C@H](CCC(N)=O)NC(=O)[C@H](Cc4ccccc4)NC(=O)[C@H](C)NC(=O)[C@H]([C@@H](C)O)NC(=O)[C@H](CSSC[C@H](NC(=O)[C@H](Cc4ccccc4)NC(=O)[C@H](CO)NC(=O)[C@H](CC(C)C)NC(=O)[C@H](CCCNC(=N)N)NC(=O)[C@H](Cc4ccc(O)cc4)NC(=O)[C@H](CCCCN)NC(=O)[C@H](CCSC)NC(=O)[C@H](CO)NC(=O)[C@H](Cc4cnc[nH]4)NC(=O)[C@H](Cc4cccc5ccccc45)NC3=O)C(=O)N[C@@H](CCCNC(=N)N)C(=O)N[C@@H](CCCCN)C(=O)N[C@@H]([C@@H](C)O)C(=O)N2)NC(=O)[C@H](CCCNC(=N)N)NC(=O)[C@H](CO)NC(=O)[C@H](CCCCN)NC(=O)[C@@H]2CCCN2C(=O)[C@H]([C@@H](C)CC)NC(=O)[C@H]([C@@H](C)O)NC(=O)[C@H](CC(=O)O)NC1=O	0.419 nM	0.375 nM
CC[C@H](C)[C@@H]1NC(=O)[C@@H](NC(=O)[C@H](CO)NC(=O)[C@@H](N)CCCNC(=N)N)CSSC[C@@H](C(=O)O)NC(=O)[C@H]([C@@H](C)O)NC(=O)CNC(=O)[C@@H]2CSSC[C@@H]3NC(=O)[C@H](CCC(N)=O)NC(=O)[C@H](Cc4ccccc4)NC(=O)[C@H](C)NC(=O)[C@H]([C@@H](C)O)NC(=O)[C@H](CSSC[C@H](NC(=O)[C@H](Cc4ccccc4)NC(=O)[C@H](CO)NC(=O)[C@H](CCCCN)NC(=O)[C@H](CCCNC(=N)N)NC(=O)[C@H](Cc4ccc(O)cc4)NC(=O)[C@H](CCCCN)NC(=O)[C@H](CCSC)NC(=O)[C@H](CO)NC(=O)[C@H](Cc4cnc[nH]4)NC(=O)[C@H](CCCCN)NC3=O)C(=O)N[C@@H](CCCNC(=N)N)C(=O)N[C@@H](CCCCN)C(=O)N[C@@H]([C@@H](C)O)C(=O)N2)NC(=O)[C@H](CCCNC(=N)N)NC(=O)[C@H](CO)NC(=O)[C@H](CCCCN)NC(=O)[C@@H]2CCCN2C(=O)[C@H]([C@@H](C)CC)NC(=O)[C@H]([C@@H](C)O)NC(=O)[C@H](CC(=O)O)NC1=O	0.226 nM	0.366 nM
CC[C@H](C)[C@@H]1NC(=O)[C@@H](NC(=O)[C@H](CO)NC(=O)[C@@H](N)CCCNC(=N)N)CSSC[C@@H](C(=O)O)NC(=O)[C@H]([C@@H](C)O)NC(=O)CNC(=O)[C@@H]2CSSC[C@@H]3NC(=O)[C@H](CCC(N)=O)NC(=O)[C@H](Cc4ccccc4)NC(=O)[C@H](C)NC(=O)[C@H]([C@@H](C)O)NC(=O)[C@H](CSSC[C@H](NC(=O)[C@H](Cc4ccccc4)NC(=O)[C@H](CO)NC(=O)[C@H](CC(C)C)NC(=O)[C@H](C)NC(=O)[C@H](Cc4ccc(O)cc4)NC(=O)[C@H](CCCCN)NC(=O)[C@H](CCSC)NC(=O)[C@H](CO)NC(=O)[C@H](Cc4cnc[nH]4)NC(=O)[C@H](CCCCN)NC3=O)C(=O)N[C@@H](CCCNC(=N)N)C(=O)N[C@@H](CCCCN)C(=O)N[C@@H]([C@@H](C)O)C(=O)N2)NC(=O)[C@H](CCCNC(=N)N)NC(=O)[C@H](CO)NC(=O)[C@H](CCCCN)NC(=O)[C@@H]2CCCN2C(=O)[C@H]([C@@H](C)CC)NC(=O)[C@H]([C@@H](C)O)NC(=O)[C@H](CC(=O)O)NC1=O	0.045 nM	0.186 nM
CC[C@H](C)[C@@H]1NC(=O)[C@@H](NC(=O)[C@H](CO)NC(=O)[C@@H](N)CCCNC(=N)N)CSSC[C@@H](C(=O)O)NC(=O)[C@H]([C@@H](C)O)NC(=O)CNC(=O)[C@@H]2CSSC[C@@H]3NC(=O)[C@H](CCC(N)=O)NC(=O)[C@H](Cc4ccccc4)NC(=O)[C@H](C)NC(=O)[C@H]([C@@H](C)O)NC(=O)[C@H](CSSC[C@H](NC(=O)[C@H](Cc4ccccc4)NC(=O)[C@H](CO)NC(=O)[C@H](CC(C)C)NC(=O)[C@H](CCCNC(=N)N)NC(=O)[C@H](Cc4ccc(O)cc4)NC(=O)[C@H](CCCCN)NC(=O)[C@H](CCSC)NC(=O)[C@H](CO)NC(=O)[C@H](Cc4c[nH]cn4)NC(=O)[C@H](CCCCN)NC3=O)C(=O)N[C@@H](CCCNC(=N)N)C(=O)N[C@@H](CCCCN)C(=O)N[C@@H]([C@@H](C)O)C(=O)N2)NC(=O)[C@H](CCCNC(=N)N)NC(=O)[C@H](CO)NC(=O)[C@H](CCCCN)NC(=O)[C@@H]2CCCN2C(=O)[C@H]([C@@H](C)CC)NC(=O)[C@H](CCCNC(=N)N)NC(=O)[C@H](CC(=O)O)NC1=O	0.215 nM	0.304 nM
CC[C@H](C)[C@@H]1NC(=O)[C@@H](NC(=O)[C@H](CO)NC(=O)[C@@H](N)CCCNC(=N)N)CSSC[C@@H](C(=O)O)NC(=O)[C@H]([C@@H](C)O)NC(=O)CNC(=O)[C@@H]2CSSC[C@@H]3NC(=O)[C@H](CCC(N)=O)NC(=O)[C@H](Cc4ccccc4)NC(=O)[C@H](C)NC(=O)[C@H]([C@@H](C)O)NC(=O)[C@H](CSSC[C@H](NC(=O)[C@H](Cc4ccccc4)NC(=O)[C@H](CO)NC(=O)[C@H](CC(C)C)NC(=O)[C@H](CCCNC(=N)N)NC(=O)[C@H](Cc4ccc(O)cc4)NC(=O)[C@H](CCCCN)NC(=O)[C@H](CCSC)NC(=O)[C@H](CO)NC(=O)[C@H](Cc4cnc[nH]4)NC(=O)[C@H](CCCCN)NC3=O)C(=O)N[C@@H](CCCNC(=N)N)C(=O)N[C@@H](CCCCN)C(=O)N[C@@H]([C@@H](C)O)C(=O)N2)NC(=O)[C@H](CCCNC(=N)N)NC(=O)[C@H](CO)NC(=O)[C@H](CCCCN)NC(=O)[C@H](CCC(=O)O)NC(=O)[C@H]([C@@H](C)CC)NC(=O)[C@H]([C@@H](C)O)NC(=O)[C@H](CC(=O)O)NC1=O		0.239 nM
CC[C@H](C)[C@@H]1NC(=O)[C@@H](NC(=O)[C@H](CO)NC(=O)[C@@H](N)CCCNC(=N)N)CSSC[C@@H](C(=O)O)NC(=O)[C@H](CCC(=O)O)NC(=O)CNC(=O)[C@@H]2CSSC[C@@H]3NC(=O)[C@H](CCC(N)=O)NC(=O)[C@H](Cc4ccccc4)NC(=O)[C@H](C)NC(=O)[C@H]([C@@H](C)O)NC(=O)[C@H](CSSC[C@H](NC(=O)[C@H](Cc4ccccc4)NC(=O)[C@H](CO)NC(=O)[C@H](CC(C)C)NC(=O)[C@H](CCCNC(=N)N)NC(=O)[C@H](Cc4ccc(O)cc4)NC(=O)[C@H](CCCCN)NC(=O)[C@H](CCSC)NC(=O)[C@H](CO)NC(=O)[C@H](Cc4cnc[nH]4)NC(=O)[C@H](CCCCN)NC3=O)C(=O)N[C@@H](CCCNC(=N)N)C(=O)N[C@@H](CCCCN)C(=O)N[C@@H]([C@@H](C)O)C(=O)N2)NC(=O)[C@H](CCCNC(=N)N)NC(=O)[C@H](CO)NC(=O)[C@H](CCCCN)NC(=O)[C@@H]2CCCN2C(=O)[C@H]([C@@H](C)CC)NC(=O)[C@H]([C@@H](C)O)NC(=O)[C@H](CC(=O)O)NC1=O		0.124 nM
